# Assay results reported in patent USRE39723E1, “Semi-synthetic taxanes with antitumor and antiangiogenetic activities” (Indena S.p.A., priority 2000, dated 2007).
# Tests used:
# [1] = tested on: angiogenesis induced by FGF-2 adsorbed on a Matrigel pellet; assay: Matrigel test, in vivo antiangiogenetic activity (hemoglobin content in pellets); design: species or system C57BL6N mice; details: after 7 days
# Description: The antiangiogenic activity was evaluated by means of the Matrigel test, in which angiogenesis is induced by FGF-2 ([…]) adsorbed on a Matrigel pellet (12.5 mg/ml, 0.5 mL) injected subcutaneously in C57BL6N mice.
# The tested compound was administered through the oral route daily or through the intraperitoneal route on alternate days, at the shown concentration. After 7 days, the angiogenic response was evaluated by measuring the hemoglobin content in the pellets, according to the procedure by Drabkin.
compound,measurement,setting,value
FGF-2: growth factor adsorbed on the Matrigel pellet to induce angiogenesis [reference compound],Hemoglobin,"[1]; FGF-2 alone (150 mg/pellet) on Matrigel pellet, no test compound",0.03 ± 0.001 g/dL
same,% (change of hemoglobin content),[1]; FGF-2 alone versus control,+300%
"13-[(2R, 3S)-3-isobutyl-2-hydroxy-3-tert-butoxycarbonylamino-propanoyl]-C-seco-10-dehydro-10-deacetyl-7,9-bis-acetyl-baccatine III 1,14-carbonate [Example VII]",% (change of hemoglobin content),[1]; 50 mg/kg i.p. on alternate days,−40%
same,Hemoglobin,"[1]; 50 mg/kg i.p. on alternate days, FGF-2 Matrigel pellet s.c.",0.014 g/dL
same,% (change of hemoglobin content),[1]; 100 mg/kg p.o. daily,−70%
same,Hemoglobin,"[1]; 100 mg/kg p.o. daily, FGF-2 Matrigel pellet s.c.",0.009 g/dL
"13-[(2R, 3S)-3-iso-butyl-2-hydroxy-3-tert-butoxycarbonylamino-propanoyl]-C-seco-10-dehydro-10-deacetyl-7,9-bis-acetyl-baccatine III [Example II]",% (change of hemoglobin content),[1]; 90 mg/kg i.p. on alternate days,−50%
same,Hemoglobin,"[1]; 90 mg/kg i.p. on alternate days, FGF-2 Matrigel pellet s.c.",0.015 ± 0.001 g/dL
same,% (change of hemoglobin content),[1]; 150 mg/kg p.o. daily,−70%
same,Hemoglobin,"[1]; 150 mg/kg p.o. daily, FGF-2 Matrigel pellet s.c.",0.009 ± 0.001 g/dL
CC(=O)O[C@H]1C(=O)[C@@]2(C)[C@H]([C@H](OC(=O)c3ccccc3)[C@]3(O)C[C@H](OC(=O)[C@H](O)[C@@H](NC(=O)c4ccccc4)c4ccccc4)C(C)=C1C3(C)C)[C@]1(OC(C)=O)CO[C@@H]1C[C@@H]2O [Paclitaxel],neuro-toxicity (tremors),"mouse, in vivo",induces tremors
same,weight loss,"nude mouse with human tumor cells, dose effective in inhibiting tumor growth (same antitumor activity)",up to 20%
